Each structure is given as a SMILES string. ≈ marks a conversion by molar mass, not a printed value. Non-standard residues stand in square brackets, D forms with d. Residues, ends and D or L forms follow the SMILES beside them. pGlu = O=C1CC[C@@H](C(=O)O)N1; Thz = O=C(O)[C@@H]1CSCN1 Bounds are passed on as bounds.

For this data set the following is noted: buffer; pH 7.4; 200.0 µM.
By kinetic solubility is commonly meant the concentration staying in solution when a stock, usually in DMSO, is diluted into the medium. The compound `COCCCNC(=S)Nc1ccc(C)cc1[N+](=O)[O-]` registered a kinetic solubility of 40.1 µg/mL (≈ 142 µM). With `O=C(COC(=O)c1cccc(S(=O)(=O)N2CCOCC2)c1)NCc1ccccc1`, the kinetic solubility is above 62.8 µg/mL. As for `C/C(=N\OC(=O)Nc1ccccc1)c1ccc(C)cc1`, the kinetic solubility amounted to 15 µg/mL (≈ 55.9 µM). `O=C(Nc1cccnc1)c1ccc2ccccc2c1O` returned a solubility (kinetic) of 36.9 µg/mL (≈ 140 µM). For the compound `CC(C)N(Cc1ccccc1)C(=S)Nc1ccccc1F`, the solubility (kinetic) worked out at 40 µg/mL (≈ 132 µM). Take `NS(=O)(=O)c1ccc(CCNc2ccc(C(F)(F)F)cn2)cc1`: the kinetic solubility was 48.1 µg/mL (≈ 139 µM). `Cc1c(-c2ccccc2)cnc2c(C)cccc12`: the solubility (kinetic) was below 0.5 µg/mL. For `COc1ccc(NC(=O)c2cc([N+](=O)[O-])ccc2N2CCCCC2)cc1` the value was 0.3 µg/mL (≈ 0.844 µM); for `CC1CN(CCc2ccccc2)c2nc3c(c(=O)n(C)c(=O)n3C)n2C1` (stereo not given), 41.7 µg/mL (≈ 118 µM). On to `CCCNC(=S)N1CCC(C(=O)c2ccc3c(c2)OCCO3)CC1`, for which the solubility (kinetic) was determined as 41.3 µg/mL (≈ 119 µM). `COc1ccccc1CCC(=O)Nc1ncc(C)s1` showed a solubility (kinetic) of 2.5 µg/mL (≈ 9.05 µM). In turn, `Cc1cccc(N(O)C(=O)Nc2cccc(Cl)c2)c1` displayed a solubility (kinetic) of 10.2 µg/mL (≈ 36.9 µM).

For `CC(C)CC1CCCCC1OC(=O)CN1CCCCC1` (stereo not given), the kinetic solubility is 3.7 µg/mL (≈ 13.1 µM). For `OCCNCCCOc1cc(Cl)ccc1Cl` the value was 31.9 µg/mL (≈ 121 µM); for `O=C(O)CNC(=S)NCc1ccccc1`, above 33.6 µg/mL. The figure for `CCCCc1ccc(NC(=O)NCc2ccccn2)cc1` is 13.1 µg/mL (≈ 46.2 µM). The figure for `O=C(/C=C/c1ccc(OCc2cccc(Cl)c2)cc1)N1CCOCC1` is 5.2 µg/mL (≈ 14.5 µM).

`S=C(NC1CC1)SCc1ccco1` yielded a kinetic solubility of 10.3 µg/mL (≈ 48.3 µM). In the case of `O=C1CC[C@@H](C(=O)N2CSC[C@H]2C(=O)O)N1` ([pGlu]-[Thz]-OH), the solubility (kinetic) is above 36.6 µg/mL. Compound `Cn1c(=O)c([N+](=O)[O-])c(NCc2ccc3c(c2)OCO3)c2ccccc21` returned a solubility (kinetic) of 0.9 µg/mL (≈ 2.55 µM). The compound `CC1SCC(=O)N(CC(=O)NC2CCCCC2)C1=O` (stereo not given) showed a solubility (kinetic) of 37.9 µg/mL (≈ 133 µM). Turning to `Cc1cccc(NC(=S)NCCc2ccc(Cl)cc2)c1C`, the kinetic solubility amounted to 0.6 µg/mL (≈ 1.88 µM).

`O=C1NC(=S)N(c2ccccc2)C(=O)/C1=C/c1ccco1` came in with a kinetic solubility of 43 µg/mL (≈ 144 µM). Take `CCOC(=O)N1CCN(C(=O)C2CCN(C(=O)Nc3ccccc3)CC2)CC1`: the solubility (kinetic) was above 58.3 µg/mL. For `Cc1cccc(OCCCC(=O)NC2CCCCC2)c1`, the solubility (kinetic) turned out to be 14.1 µg/mL (≈ 51.2 µM). Take `CCOC(=O)CNC(=S)N(Cc1ccccc1)Cc1ccccc1F`: the solubility (kinetic) came to 11.7 µg/mL (≈ 32.5 µM). In turn, `Cc1ccc(N2CCN(c3ccc([N+](=O)[O-])cn3)CC2)c(C)c1` had a solubility (kinetic) of 0.3 µg/mL (≈ 0.96 µM).

The compound `COc1ccc(C(=O)NCc2ccc3c(c2)OCO3)cc1` had a solubility (kinetic) of 42.4 µg/mL (≈ 149 µM). Compound `COc1ccc(C(=O)NC(=O)COC(=O)C2CC2C)cc1` (stereo not given) displayed a solubility (kinetic) of 13.7 µg/mL (≈ 47 µM). With `O=C(/C=C/c1ccc(F)cc1)N1CCN(Cc2ccccc2)CC1`, the kinetic solubility was determined as 44.5 µg/mL (≈ 137 µM). As to `FC(F)(F)c1ccccc1NC(=S)N1CCCCCC1`, the solubility (kinetic) is above 45.4 µg/mL. In the case of `NC(=O)c1cccnc1Oc1ccccc1`, the solubility (kinetic) was found to be 28.8 µg/mL (≈ 134 µM). Regarding `COc1cccc(C(=O)OCC(=O)N2CCc3ccccc3C2)c1OC`, the solubility (kinetic) turned out to be 11.7 µg/mL (≈ 32.9 µM). The compound `CCc1cccc(NC(=O)C2CCCN(c3cnccn3)C2)c1` (stereo not given) had a kinetic solubility above 46.6 µg/mL. In the case of `CC(=O)Nc1ccc(NC(=O)C(C)OC(=O)C2CCC2)cc1` (stereo not given), the solubility (kinetic) is above 45.7 µg/mL. Compound `O=C(NCc1ccccc1)N1CCC(Cc2ccccc2)CC1` showed a solubility (kinetic) below 0.3 µg/mL.

With `O=C(COc1ccc(Br)cc1F)NCC1(N2CCCCC2)CCCCC1`, the kinetic solubility is above 64.1 µg/mL. Turning to `Cc1cc(C)nc(Nc2nc3ccccc3o2)n1`, the kinetic solubility was above 36 µg/mL. As for `Cc1ccccc1C(=O)O/N=C(\N)c1ccccc1`, the kinetic solubility amounted to 34.3 µg/mL (≈ 135 µM). Consider `Cc1ccc(C(=O)OCC(=O)N(C)c2ccccc2)cc1C`, for which the kinetic solubility was determined as 41.4 µg/mL (≈ 139 µM). Regarding `CN(CC(=O)Nc1ccccc1Cl)C(=O)c1ccc(Cl)c(S(=O)(=O)N2CCCCCC2)c1`, the solubility (kinetic) is 21.6 µg/mL (≈ 43.3 µM). For `CC1=C(C(=O)N(C)C)C(c2ccc(N3CCOCC3)cc2)NC(=O)N1` (stereo not given), the solubility (kinetic) amounted to 49.8 µg/mL (≈ 145 µM). `CC(=O)Nc1ccc(NC(=O)C(C)OC(=O)C23CC4CC(CC(Cl)(C4)C2)C3)cc1` (stereo not given) gave a solubility (kinetic) of 61.5 µg/mL (≈ 147 µM). `O=C(COc1ccc(C(=O)O)cc1)Nc1cccc(C(F)(F)F)c1` yielded a solubility (kinetic) above 50.9 µg/mL.

On to `CN(CC(=O)Nc1cccc(F)c1)C(=O)CSc1ccccc1F`, for which the kinetic solubility is 46.7 µg/mL (≈ 133 µM).

Consider `CC(C)(C)c1csc(NC(=O)c2cccnc2Cl)n1`, for which the kinetic solubility was found to be 40.4 µg/mL (≈ 137 µM). `Cc1nnc(NC(=O)CSc2nccn2-c2ccc(F)cc2)s1` had a kinetic solubility above 52.4 µg/mL. `Cc1cc(S(=O)(=O)N2CCc3ccccc3C2)ccc1F` had a solubility (kinetic) below 0.7 µg/mL.

On to `O=C(Cc1ccccc1)Nc1ccc(C(=O)NCc2ccccc2)cc1`, for which the solubility (kinetic) was below 0.4 µg/mL. Turning to `CCOc1ccc(C(=O)N[C@H](C(=O)Nc2ccc(S(=O)(=O)Nc3nccs3)cc2)C(C)C)cc1`, the kinetic solubility came to 62.3 µg/mL (≈ 124 µM).

In the case of `CCCCc1nc(Cl)c(C#N)c2c1CCC2`, the kinetic solubility was found to be 3.4 µg/mL (≈ 14.5 µM). In turn, `O=C(CN1C(=O)NC2(CCCCC2)C1=O)Nc1ccc(Cl)cc1` gave a kinetic solubility of 11.3 µg/mL (≈ 33.7 µM). For `N#Cc1cccc(NC(=O)CC2CCCC2)c1` the value was 33.1 µg/mL (≈ 145 µM). As for `COc1ccc(NC(=O)C2CCN(C(=O)c3ccco3)CC2)c(OC)c1`, the solubility (kinetic) was 44.2 µg/mL (≈ 123 µM). For `Nc1ccc(C(=O)[O-])cc1.[K+]`, the kinetic solubility worked out at 24.1 µg/mL. Compound `O=C(NCc1ccccn1)C1CCCCC1` gave a kinetic solubility above 32.7 µg/mL. `COc1ccc(NC(=O)CN2CCc3ccccc3C2)c([N+](=O)[O-])c1` came in with a solubility (kinetic) of 1.8 µg/mL (≈ 5.27 µM). The figure for `O=C1OC(c2ccc(Cl)cc2)=C/C1=C/c1cccnc1` is 0.7 µg/mL (≈ 2.47 µM); for `O=C1CC(c2ccccc2)Cc2nc(NC3CC3)ncc21` (stereo not given) it is 2.7 µg/mL (≈ 9.67 µM).

As to `N#Cc1ccccc1OCC(=O)NCC(c1cccs1)N1CCOCC1` (stereo not given), the solubility (kinetic) was above 55.7 µg/mL.

Consider `COc1cc(OC)c(C=O)c(OC(=O)N2CCOCC2)c1`, for which the kinetic solubility is above 44.3 µg/mL. As to `CC(C)[C@H](NC(=O)c1ccccc1)C(=O)OCC(=O)Nc1ncc(Cl)cc1Cl`, the solubility (kinetic) stood at 46 µg/mL (≈ 108 µM). The compound `COCCCn1c(=O)c2sccc2n(Cc2cccc(C)c2)c1=O` registered a solubility (kinetic) of 15.1 µg/mL (≈ 43.8 µM). In turn, `O=C(/C=C/c1cccnc1)c1ccc([N+](=O)[O-])cc1` registered a solubility (kinetic) of 9.8 µg/mL (≈ 38.5 µM). In turn, `Cc1c(Cl)cccc1NC(=O)Nc1cccnc1` gave a solubility (kinetic) of 34.9 µg/mL (≈ 133 µM).

Take `CC(C)(C)c1ccc(C(=O)NCc2ccccc2)cc1`: the solubility (kinetic) is below 0.6 µg/mL. For `COc1ccc(OCC(O)CNC(=O)Nc2cc(F)ccc2C)cc1` (stereo not given), the kinetic solubility came out at 17.2 µg/mL (≈ 49.4 µM). Consider `Cc1ccc(NC(=O)c2nc3nccc(C)n3n2)c(C)c1`, for which the kinetic solubility is above 42.2 µg/mL. Compound `CCC(Cc1ccccc1)NC(=O)C1CCCCC1` (stereo not given) had a kinetic solubility of 11.6 µg/mL (≈ 44.7 µM).

With `O=C(O)c1ccc(-n2cc(C(=O)c3ccccc3O)cn2)cc1`, the solubility (kinetic) is above 46.2 µg/mL. `COC1CCCCC1NCCc1ccccc1.O=C(O)C(=O)O` (stereo not given) gave a kinetic solubility above 48.5 µg/mL. On to `CCOC(=O)C1(Cc2ccc(Cl)cc2)CCN(C2CCC2)CC1`, for which the solubility (kinetic) amounted to 44 µg/mL (≈ 131 µM). `Cc1cccc(C)c1NC(=O)CC(C)c1ccccc1` (stereo not given) came in with a kinetic solubility of 12.8 µg/mL (≈ 47.9 µM). In the case of `O=C(O)C1CCCNC1` (stereo not given), the solubility (kinetic) was found to be 0.4 µg/mL (≈ 3.1 µM). Turning to `Cc1c(NC(=O)c2ccc(-c3ccccc3)cc2)cccc1C(=O)O`, the solubility (kinetic) worked out at 42.3 µg/mL (≈ 128 µM).

These data come from PubChem BioAssay AID1996.
